In patent US5739130A, “Heterotricyclic derivatives, process for their preparation and pharmaceutical compositions containing them” (Fujisawa Pharmaceutical Co., Ltd., priority 1992, dated 1998):

How the values were obtained:
[1] = system: anti-single strand DNA antibodies; test: Inhibitory activity on the production of an anti-DNA-antibody (GVH disease mice, ELISA); format: in vivo, (57BL/6×DBA/2)F1; conditions: 32 mg/kg orally once a day for 8 weeks, measured 4 weeks after last cell injection, P<0.05 vs control
Experimental: (§1) Inhibitory activity on the production of an anti-DNA-antibody and on the leakage of a proteinuria
(§2) Six weeks old female (57BL/6×DBA/2)F1 and DBA/2 mice were used. Graft-versus-host (GVH) disease was induced in (57BL/6×DBA/2)F1mice with two injections of DBA/2 spleen cells given 5 days apart. Each injection contained 5×10^7 cells. From 3 days after the second cell injection, drug was administered orally once a day for 8 weeks.
(§3) As an indication of autoimmune disease, 4 weeks after the last cell injection anti-single strand DNA antibodies were measured by enzyme-linkedimmunosorbent assay (ELISA) using the procedure reported by T. Fujitsu et al. (International J. Immunopharmacol, 8 897 (1986)). To assess the renal disease, 8 weeks after the last cell injection proteinuria were measured. The concentration of serum albumin in the urine was determined by the single radial immunodiffusion method using rabbit anti-mouse serum albumin antiserum. Ten mice were used per group. The activity of the compound was expressed as a % inhibition of anti-DNA antibody and proteinuria.

B16 melanoma cells = test: Inhibitory activity on B16 melanoma metastases; format: in vivo, Mouse; conditions: C57BL/6 mice, day 16, P<0.01 vs control
Experimental: Inhibitory activity on B16 melanoma metastases
According to the experimental schedule as exemplified below, the experiment was carried out.
Mouse B16 melanoma cells (5×10^5 cells) were inoculated intravenously to 8 weeks old female (C57BL/6) mice on day 0.
The animals were sacrificed at day 16 and tumor colonies established in lung were counted in a dissection microscope.
The test compound was administered orally once a day.
Effects of test compound on tumors were assessed by the numbers of colonies compared to control. [drawing 8] 2. Test compound

[2] = system: proteinuria (serum albumin in the urine); test: Inhibitory activity on the leakage of a proteinuria (GVH disease mice, serum albumin in urine); format: in vivo, (57BL/6×DBA/2)F1; conditions: 32 mg/kg orally once a day for 8 weeks, measured 8 weeks after last cell injection, P<0.01 vs control
Experimental: as §1, §2, §3

## COc1cc2c3c(c1)c(O)c(C(=O)N1CCc4ccccc41)c(=O)n3CCO2 [2,3-Dihydro-7-hydroxy-9-methoxy-6-(1-indolinylcarbonyl)-5-oxo-5H-pyrido[1,2,3-de]-1,4-benzoxazine]
[1]
  Inhibition (%) anti-DNA antibody: 86%
B16 melanoma cells; 32 mg/kg orally once a day
  inhibition (%) of tumor colonies in lung: 36%
B16 melanoma cells; 100 mg/kg orally once a day
  inhibition (%) of tumor colonies in lung: 59%
[2]
  Inhibition (%) proteinuria: 99%
